Several values for one entry are separate records, joined by “and”; a condition that tells them apart may be missing. Identical values can stand only once. Like-named read-outs stand apart in the source and are kept apart here.
How the values were obtained:
CYP2A6 = CYP2A6 (Homo sapiens, UniProt P11509); test: CYP inhibition in liver microsomes, CYP2A6; assay type: in vitro ADME; conditions: human liver microsomes 0.1 mg/mL
Description: (§1) After addition of prototypical CYP substrates in 250 μL, samples were incubated for 10 min (CYP1A2, CYP2B6, CYP2C9, and CYP3A4) or 20 min (CYP2C8) at 37° C. in 5% CO2. […] Samples were analyzed for metabolite formation by LC-MS/MS. The results were expressed using the peak area ratio of analyte to internal standard, based on the calibration curves.
(§2) where Range=fitted uninhibited value, s=slope factor, x=inhibitor concentration, y=% control activity.

CYP3A4 = CYP3A4 (Homo sapiens, UniProt P08684); test: CYP inhibition in liver microsomes, CYP3A4; assay type: in vitro ADME; conditions: human liver microsomes 0.1 mg/mL
Description: as §1, §2

Nav1.5 = Nav1.5 (Homo sapiens, UniProt Q14524); test: Ion channel screening, Nav1.5; assay type: cell-based; conditions: n=3, pulse 26, read-out: inhibition of Nav1.5 currents
Description: (§3) The parameters measured were the maximum inward current evoked on stepping to −20 mV from the 1st and 26th pulse. Human Kv4.3/KChIP2 currents were evoked from a holding potential of −80 mV by a series of four 500 msec pulses to 0 mV using a 1000 msec interval between pulses. The parameter measured was the amplitude of the outward current 50 msec after the onset of the 4th voltage step to 0 mV. Human Cav1.2 currents were evoked by 2 pulses to −10 mV from a holding potential of −100 mV. The parameters measured were the maximum inward currents evoked on stepping to −10 mV from the holding potential of −100 mV for the 1st and 2nd pulse. Human Kv1.5 currents were evoked by a single pulse from a holding potential of −80 mV to a potential of 0 mV for 4 sec before returning to −80 mV. The parameters measured were the maximum amplitude of outward currents evoked at the beginning of the voltage pulse and at the end of the voltage step from −80 mV to 0 mV. Human KCNQ1/minK currents were evoked by a single pulse delivered from a holding potential of −80 mV to +60 mV for 4 sec before returning to −80 mV. The parameter measured was the maximum outward current evoked on stepping to +60 mV from the holding potential of −80 mV. hERG currents were evoked by a three-pulse protocol where voltage was first stepped to +40 mV for two sec from a holding potential of −80 mV to inactivate hERG channels. […]

Human Kv4.3/KChIP2 = Human Kv4.3/KChIP2 (Homo sapiens, UniProt Q9UK17); test: Ion channel screening, Kv4.3/KChIP2; assay type: cell-based; conditions: n=13, read-out: inhibition of Kv4.3/KChIP2 currents
Description: as §3

hERG = biological target: T1, hERG (Homo sapiens, UniProt Q12809); test: Patch clamp recording of hERG currents in transfected HEK293 cells; assay type: cell-based
T1 construct: expressed in transfected cells; host or cells: HEK293 (ATCC), polyclonal, stably transfected, G418 selection
Description: Caco-2 and HEK293 cells were obtained from the American Type Culture Collection (ATCC, Manasass, Va.) and grown in culture according to the supplier's specifications. In some experiments, HEK293 cells were stably transfected with hERG cDNA and polyclonal cultures were maintained in the presence of 250 μg/ml geneticin (G418).
For electrophysiology recording, a micropipette was pulled from borosilicate glass with the pipette tip resistance between 3˜5 MΩ. For each experiment, polyclonal HEK293 cells stably transfected with hERG cDNA and maintained in 250 μg/ml Geneticin (G418) were plated on 35 mm dishes on the microscope stage and a commercial patch clamp amplifier was used for the whole cell recordings. The tail currents were evoked at 22° C. once every 30 sec by a 3 sec-50 mV repolarizing pulse following a 2 sec+50 mV depolarizing pulse with a hold voltage of −80 mV. A 50 msec depolarized pulse to −50 mV at the beginning of the voltage protocol served as a baseline for calculating the amplitude of the peak tail current. The hERG currents were allowed to stabilize over a 3 min period in the presence of vehicle alone prior to Gamitrinib application. The cells were kept in the test solution until the peak tail current was stable (<5% change) for ˜5 sweeps or for a maximum of 6 min, whichever came first. Peak tail amplitudes were plotted as a function of the sweep number. Five peak tail current measurements at the steady state before Gamitrinib application were averaged and used as the control current amplitude. Four or five peak tail current measurements at the steady state after Gamitrinib application were averaged and used as the remaining current amplitude after inhibition by the test article. The % inhibition of the test article was calculated from the following equation: […]

[1] = Gamitrinib pharmacokinetics (PK) in rat plasma, single IV dose; assay type: in vivo, Sprague-Dawley rats; conditions: for 17-AG plasma concentration after IV Gamitrinib: Gamitrinib 5 mg/kg IV
Description: Sprague-Dawley rats (n=3) were administered a single intravenous (IV) dose of 1 mL Gamitrinib (5 mg/kg) formulated as described above without added microfluidization. Blood samples were collected via lateral tail vein using K2EDTA as an anticoagulant at 0.083, 0.25, 0.5, 1, 2, 4 and 24 h post-dose, chilled on ice and centrifuged at 5000 rpm for 10 min. Aliquots (0.2 mL) of each plasma sample were stored frozen at −20° C. For analysis, 50 μL aliquots of study samples were mixed with 50 μL of ACN/H2O (50:50), extracted by protein precipitation using ACN containing the internal standard Gamitrinib-d15 (100 ng/mL), and aliquots of supernatant were mixed with deionized water for Gamitrinib determination. Batch samples under analysis included a calibration curve, a matrix blank (blank rat plasma), a reagent blank, a control zero (blank rat plasma spiked with internal standard), and duplicate QC samples at 3 concentration levels (low, medium, and high) in addition to the study samples. Within each batch, the study samples were bracketed by calibration standards or QC samples. The lowest calibration standard served to evaluate system suitability at the beginning of each batch. […] Overall, the concentration of Gamitrinib was measured in 21 rat plasma samples in 1 analytical batch using LC-MS/MS data acquisition on a Shimadzu Nexera LC system coupled with an AB Sciex Triple Quad 5500 mass spectrometer. Chromatograms were integrated using Analyst 1.6.2 software. A weighted (1/x^2, x=concentration) linear regression was used to generate the calibration curve for Gamitrinib. […] The mean, standard deviation, precision, accuracy, and assay variability were calculated using Microsoft Excel.

tumor cells = conditions: in culture; read-out: IC50 tumor cell killing; cited from earlier work
melanoma cell lines = conditions: melanoma lines of NCI 60 screen; read-out: IC50 anticancer activity; cited from earlier work
[2] = 5 mg/kg IV, individual animals Rat 1-3

T1 sequence (Q12809 whole entry): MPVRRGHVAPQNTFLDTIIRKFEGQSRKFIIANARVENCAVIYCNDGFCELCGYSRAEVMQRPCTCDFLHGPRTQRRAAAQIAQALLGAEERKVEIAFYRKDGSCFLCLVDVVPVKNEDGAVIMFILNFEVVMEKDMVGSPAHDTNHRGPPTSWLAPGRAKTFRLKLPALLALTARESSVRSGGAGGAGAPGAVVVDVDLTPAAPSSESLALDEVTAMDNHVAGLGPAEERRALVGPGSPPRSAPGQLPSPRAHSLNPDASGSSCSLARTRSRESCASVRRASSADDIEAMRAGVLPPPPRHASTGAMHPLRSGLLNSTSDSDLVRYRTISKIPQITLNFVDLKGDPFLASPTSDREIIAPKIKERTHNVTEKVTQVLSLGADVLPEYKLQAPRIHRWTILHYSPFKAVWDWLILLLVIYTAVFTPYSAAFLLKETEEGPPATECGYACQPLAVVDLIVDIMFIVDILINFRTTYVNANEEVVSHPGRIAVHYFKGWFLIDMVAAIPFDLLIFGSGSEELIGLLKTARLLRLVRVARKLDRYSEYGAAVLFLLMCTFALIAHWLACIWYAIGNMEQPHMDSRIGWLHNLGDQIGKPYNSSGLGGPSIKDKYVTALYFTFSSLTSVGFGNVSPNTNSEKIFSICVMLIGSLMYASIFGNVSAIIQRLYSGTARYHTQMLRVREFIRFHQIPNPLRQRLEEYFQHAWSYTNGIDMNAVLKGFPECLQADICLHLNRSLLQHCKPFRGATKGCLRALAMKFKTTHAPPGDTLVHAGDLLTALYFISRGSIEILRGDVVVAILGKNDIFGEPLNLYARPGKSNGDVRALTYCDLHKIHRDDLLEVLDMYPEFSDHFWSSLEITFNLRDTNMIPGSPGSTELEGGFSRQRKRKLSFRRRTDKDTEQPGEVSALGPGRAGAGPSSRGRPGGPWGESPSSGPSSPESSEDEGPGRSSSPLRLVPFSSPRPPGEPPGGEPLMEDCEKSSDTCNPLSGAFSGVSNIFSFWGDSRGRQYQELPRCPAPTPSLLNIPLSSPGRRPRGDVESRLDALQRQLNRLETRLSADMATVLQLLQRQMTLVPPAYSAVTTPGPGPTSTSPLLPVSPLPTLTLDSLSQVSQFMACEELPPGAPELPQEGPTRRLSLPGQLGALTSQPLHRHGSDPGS
CYP2A6, sequence (P11509 whole entry): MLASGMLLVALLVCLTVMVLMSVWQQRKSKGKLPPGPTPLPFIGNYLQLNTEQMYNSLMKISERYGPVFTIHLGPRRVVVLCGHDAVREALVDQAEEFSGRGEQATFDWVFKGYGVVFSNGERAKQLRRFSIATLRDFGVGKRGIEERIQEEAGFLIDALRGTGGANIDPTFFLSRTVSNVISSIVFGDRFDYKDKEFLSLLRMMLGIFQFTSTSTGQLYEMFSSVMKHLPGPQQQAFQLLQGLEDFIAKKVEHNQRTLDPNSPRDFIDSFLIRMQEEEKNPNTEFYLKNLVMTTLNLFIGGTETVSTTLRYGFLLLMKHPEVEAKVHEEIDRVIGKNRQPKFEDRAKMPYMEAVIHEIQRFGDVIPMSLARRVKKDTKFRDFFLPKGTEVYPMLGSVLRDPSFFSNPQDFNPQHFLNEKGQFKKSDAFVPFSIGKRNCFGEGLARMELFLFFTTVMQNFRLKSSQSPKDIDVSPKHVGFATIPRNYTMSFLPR
CYP3A4, sequence (P08684 whole entry): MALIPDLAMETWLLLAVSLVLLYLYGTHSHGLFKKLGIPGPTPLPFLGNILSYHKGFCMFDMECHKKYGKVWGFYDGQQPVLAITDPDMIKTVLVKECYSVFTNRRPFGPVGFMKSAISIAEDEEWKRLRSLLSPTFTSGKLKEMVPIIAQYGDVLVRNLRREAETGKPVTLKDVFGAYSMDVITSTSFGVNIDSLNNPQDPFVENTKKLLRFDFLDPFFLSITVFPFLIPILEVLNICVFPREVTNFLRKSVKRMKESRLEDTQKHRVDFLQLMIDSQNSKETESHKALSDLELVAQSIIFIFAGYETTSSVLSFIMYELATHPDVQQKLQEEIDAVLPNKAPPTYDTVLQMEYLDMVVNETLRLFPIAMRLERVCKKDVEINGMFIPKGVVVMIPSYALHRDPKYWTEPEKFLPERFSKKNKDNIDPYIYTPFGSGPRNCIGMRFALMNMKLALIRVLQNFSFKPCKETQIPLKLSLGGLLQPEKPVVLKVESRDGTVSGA
Human Kv4.3/KChIP2, sequence (Q9UK17 whole entry): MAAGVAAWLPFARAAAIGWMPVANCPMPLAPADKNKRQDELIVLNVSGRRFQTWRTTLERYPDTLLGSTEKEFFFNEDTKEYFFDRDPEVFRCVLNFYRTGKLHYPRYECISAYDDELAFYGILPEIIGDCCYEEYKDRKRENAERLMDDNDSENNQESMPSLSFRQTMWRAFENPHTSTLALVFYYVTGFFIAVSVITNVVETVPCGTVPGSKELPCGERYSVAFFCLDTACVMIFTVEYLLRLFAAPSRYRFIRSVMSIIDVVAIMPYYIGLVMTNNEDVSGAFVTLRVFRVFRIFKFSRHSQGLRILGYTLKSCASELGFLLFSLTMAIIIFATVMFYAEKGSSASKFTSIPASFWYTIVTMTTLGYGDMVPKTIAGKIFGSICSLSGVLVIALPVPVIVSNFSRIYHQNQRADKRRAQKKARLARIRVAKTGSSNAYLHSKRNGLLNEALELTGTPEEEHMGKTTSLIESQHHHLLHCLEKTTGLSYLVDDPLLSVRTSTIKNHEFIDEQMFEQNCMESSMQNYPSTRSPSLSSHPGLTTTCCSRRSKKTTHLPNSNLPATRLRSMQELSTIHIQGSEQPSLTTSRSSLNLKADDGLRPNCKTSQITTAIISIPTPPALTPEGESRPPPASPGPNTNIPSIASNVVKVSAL
Human Kv4.3/KChIP2, sequence (Q9NS61 whole entry partner): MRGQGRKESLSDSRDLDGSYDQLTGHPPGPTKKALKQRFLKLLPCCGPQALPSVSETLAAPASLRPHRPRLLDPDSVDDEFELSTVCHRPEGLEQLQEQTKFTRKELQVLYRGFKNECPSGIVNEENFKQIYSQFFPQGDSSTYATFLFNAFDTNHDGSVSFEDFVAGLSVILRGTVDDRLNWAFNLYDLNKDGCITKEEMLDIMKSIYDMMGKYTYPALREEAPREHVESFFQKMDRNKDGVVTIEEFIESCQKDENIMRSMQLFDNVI
Nav1.5, sequence (Q14524 whole entry): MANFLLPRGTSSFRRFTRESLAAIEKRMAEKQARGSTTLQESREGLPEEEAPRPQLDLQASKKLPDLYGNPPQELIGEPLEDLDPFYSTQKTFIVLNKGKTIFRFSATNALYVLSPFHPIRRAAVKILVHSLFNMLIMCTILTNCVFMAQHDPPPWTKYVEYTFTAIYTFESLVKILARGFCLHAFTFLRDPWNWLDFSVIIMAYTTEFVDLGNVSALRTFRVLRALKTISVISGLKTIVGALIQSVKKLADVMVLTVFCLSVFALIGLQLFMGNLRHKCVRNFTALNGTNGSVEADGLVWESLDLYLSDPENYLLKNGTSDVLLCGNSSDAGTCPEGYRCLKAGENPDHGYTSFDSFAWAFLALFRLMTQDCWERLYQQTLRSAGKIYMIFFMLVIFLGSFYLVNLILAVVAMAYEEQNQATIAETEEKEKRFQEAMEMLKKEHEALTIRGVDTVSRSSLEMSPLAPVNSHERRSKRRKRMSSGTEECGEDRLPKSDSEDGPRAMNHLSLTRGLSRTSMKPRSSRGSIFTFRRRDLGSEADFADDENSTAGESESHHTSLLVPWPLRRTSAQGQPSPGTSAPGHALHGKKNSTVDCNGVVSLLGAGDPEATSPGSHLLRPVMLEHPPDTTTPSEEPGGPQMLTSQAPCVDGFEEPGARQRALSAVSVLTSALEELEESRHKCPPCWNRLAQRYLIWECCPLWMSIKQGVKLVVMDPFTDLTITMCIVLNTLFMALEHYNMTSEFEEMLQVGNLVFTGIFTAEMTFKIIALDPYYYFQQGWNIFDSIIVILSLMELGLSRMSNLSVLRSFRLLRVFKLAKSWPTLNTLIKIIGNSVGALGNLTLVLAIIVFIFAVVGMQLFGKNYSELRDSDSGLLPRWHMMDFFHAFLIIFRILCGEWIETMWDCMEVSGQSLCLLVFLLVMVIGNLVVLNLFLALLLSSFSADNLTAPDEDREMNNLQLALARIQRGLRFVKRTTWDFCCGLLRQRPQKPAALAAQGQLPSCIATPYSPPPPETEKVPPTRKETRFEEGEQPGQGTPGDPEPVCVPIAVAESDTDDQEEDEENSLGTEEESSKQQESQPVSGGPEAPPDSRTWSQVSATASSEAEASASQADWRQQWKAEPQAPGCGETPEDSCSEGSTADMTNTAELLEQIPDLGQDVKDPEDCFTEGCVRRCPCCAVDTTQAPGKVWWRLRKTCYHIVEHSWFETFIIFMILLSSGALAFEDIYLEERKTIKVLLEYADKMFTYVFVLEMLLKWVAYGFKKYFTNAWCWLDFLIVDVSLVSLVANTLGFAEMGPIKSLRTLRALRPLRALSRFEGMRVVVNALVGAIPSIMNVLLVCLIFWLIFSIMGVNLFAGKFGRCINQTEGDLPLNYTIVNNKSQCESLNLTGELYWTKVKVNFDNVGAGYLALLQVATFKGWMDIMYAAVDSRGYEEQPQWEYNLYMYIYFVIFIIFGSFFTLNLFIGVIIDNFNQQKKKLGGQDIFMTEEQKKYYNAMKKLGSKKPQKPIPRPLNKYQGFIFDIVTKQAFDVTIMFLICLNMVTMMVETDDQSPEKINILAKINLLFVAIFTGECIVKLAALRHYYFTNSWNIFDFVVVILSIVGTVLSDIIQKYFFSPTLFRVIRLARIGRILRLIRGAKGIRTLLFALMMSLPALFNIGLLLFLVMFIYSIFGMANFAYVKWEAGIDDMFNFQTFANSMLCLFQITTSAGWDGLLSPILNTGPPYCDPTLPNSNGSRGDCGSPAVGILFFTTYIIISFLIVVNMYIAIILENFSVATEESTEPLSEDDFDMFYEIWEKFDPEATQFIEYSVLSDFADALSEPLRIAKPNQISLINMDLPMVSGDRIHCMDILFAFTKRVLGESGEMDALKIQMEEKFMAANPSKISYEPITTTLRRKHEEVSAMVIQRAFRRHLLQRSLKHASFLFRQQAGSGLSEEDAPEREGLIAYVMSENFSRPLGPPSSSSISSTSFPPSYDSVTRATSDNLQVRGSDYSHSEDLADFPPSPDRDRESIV

## CO[C@H]1/C=C\C=C(/C)C(=O)NC2=CC(=O)C(NCCCCCC[P+](c3ccccc3)(c3ccccc3)c3ccccc3)=C(C[C@@H](C)C[C@H](OC)[C@H](O)[C@@H](C)/C=C(\C)[C@@H]1OC(N)=O)C2=O [Gamitrinib, 17-Demethoxy-17-((6-(triphenylphosphonio)hexyl)amino)geldanamycin]
CYP2A6
  IC50: 24 µM
CYP3A4
  IC50: 0.12 to 0.2 µM
Nav1.5
  inhibition at 10 µM: 22.3 ± 5.3%
Human Kv4.3/KChIP2
  inhibition at 10 µM: 6.8 ± 2.2%
hERG; hERG IC50 3.5 μM higher than tumor IC50
  hERG IC50 relative to IC50 of inhibition of tumor growth in NCI 60-cell line screen: up to 20 fold
hERG; human, HEK293 cells stably transfected with hERG, pH 7.4, 0.5 μM, transfected HEK293 cells, mean±SD
  inhibition at 0.5 µM: -0.68 ± 3.95%
hERG; human, HEK293 cells stably transfected with hERG, pH 7.4, 1 μM, transfected HEK293 cells, mean±SD
  inhibition at 1 µM: 11.7 ± 6.51%
hERG; human, HEK293 cells stably transfected with hERG, pH 7.4, 5 μM, transfected HEK293 cells, mean±SD
  inhibition at 5 µM: 66 ± 6.78%
hERG; human, HEK293 cells stably transfected with hERG, pH 7.4, 10 μM, transfected HEK293 cells, mean±SD
  inhibition at 10 µM: 81.8 ± 1.88%
hERG; patch-clamp, transfected HEK293 cells, read-out: IC50 of hERG inhibition
  IC50: 3.5 µM
[1]; 5 mg/kg IV, Sprague-Dawley rats, individual animals Rat 1-3
  t1/2: 11.107 h and 14.022 h
[1]; 5 mg/kg IV, Sprague-Dawley rats, mean, n=3
  t1/2 (terminal phase half-life): 12.25 ± 1.55 h
[1]; 5 mg/kg IV, 5 min, animals 1-3
  Gamitrinib plasma concentration: 674.432 ng/mL and 622.199 ng/mL
[1]; 5 mg/kg IV, 15 min, animals 1-3
  Gamitrinib plasma concentration: 128.663 ng/mL and 180.951 ng/mL
[1]; 5 mg/kg IV, 30 min, animals 1-3
  Gamitrinib plasma concentration: 67.204 ng/mL and 106.381 ng/mL
[1]; 5 mg/kg IV, 60 min, animals 1-3
  Gamitrinib plasma concentration: 65.903 ng/mL and 55.991 ng/mL
[1]; 5 mg/kg IV, 120 min, animals 1-3
  Gamitrinib plasma concentration: 43.125 ng/mL and 29.914 ng/mL
[1]; 5 mg/kg IV, 240 min, animals 1-3
  Gamitrinib plasma concentration: 34.776 ng/mL and 28.905 ng/mL
[1]; 5 mg/kg IV, 1440 min, animals 1-3
  Gamitrinib plasma concentration: 10.511 ng/mL and 10.365 ng/mL
[1]; [2]
  AUCINF: 957.472 ng·h/mL and 918.784 ng·h/mL
  AUClast: 789.045 ng·h/mL and 709.112 ng·h/mL
  CL: 87.035 mL/min/kg and 90.700 mL/min/kg
  Cmax: 829.668 ng/mL and 1544.041 ng/mL
  MRT: 5.411 h and 5.524 h
  Vss: 60.052 L/kg and 78.131 L/kg
  Vz: 83.678 L/kg and 110.085 L/kg
[1]; 5 mg/kg IV, mean, n=3
  AUClast (AUC0-t): 783.199 ng·h/mL
  CL (clearance): 85.656 ± 5.856 mL/min/kg and 85.65 ± 5.85 mL/min/kg
[1]; 30 min, animals 1-3
  17-AG plasma concentration after IV Gamitrinib: BLOQ
[1]; 60 min, animals 1-3
  17-AG plasma concentration after IV Gamitrinib: BLOQ
[1]; 120 min, animals 1-3
  17-AG plasma concentration after IV Gamitrinib: BLOQ
[1]; 240 min, animals 1-3
  17-AG plasma concentration after IV Gamitrinib: BLOQ
[1]; 1440 min, animals 1-3
  17-AG plasma concentration after IV Gamitrinib: BLOQ
[1]; Sprague-Dawley, rat, plasma, intravenous, 5 mg/kg, 5 mg/kg IV, 5 min, animals 1-3
  concentration at 5 min: 526 ng/mL
[1]; Sprague-Dawley, rat, plasma, intravenous, 5 mg/kg, 5 mg/kg IV, 15 min, animals 1-3
  concentration at 15 min: 212 ng/mL
[1]; Sprague-Dawley, rat, plasma, intravenous, 5 mg/kg, 5 mg/kg IV, 30 min, animals 1-3
  concentration at 30 min: 114 ng/mL
[1]; Sprague-Dawley, rat, plasma, intravenous, 5 mg/kg, 5 mg/kg IV, 60 min, animals 1-3
  concentration at 60 min: 71.4 ng/mL
[1]; Sprague-Dawley, rat, plasma, intravenous, 5 mg/kg, 5 mg/kg IV, 120 min, animals 1-3
  concentration at 120 min: 46.7 ng/mL
[1]; Sprague-Dawley, rat, plasma, intravenous, 5 mg/kg, 5 mg/kg IV, 240 min, animals 1-3
  concentration at 240 min: 36.8 ng/mL
[1]; Sprague-Dawley, rat, plasma, intravenous, 5 mg/kg, 5 mg/kg IV, 1440 min, animals 1-3
  concentration at 1440 min: 11.9 ng/mL
[1]; Sprague-Dawley, rat, plasma, iv, 5 mg/kg, 5 mg/kg IV, Sprague-Dawley rats, individual animals Rat 1-3, read-out: t1/2 (converted)
  half-life: 11.6 h
[1]; Sprague-Dawley, rat, plasma, iv, 5 mg/kg, 5 mg/kg IV, Sprague-Dawley rats, mean, n=3, read-out: t1/2 (terminal phase half-life) (converted)
  half-life: 12.2 ± 1.55 h
[1]; Sprague-Dawley, rat, plasma, iv, 5 mg/kg, 5 mg/kg IV, individual animals Rat 1-3
  AUC(0-inf): 1050 ng·h/mL
[1]; Sprague-Dawley, rat, plasma, iv, 5 mg/kg, 5 mg/kg IV, individual animals Rat 1-3, read-out: AUClast
  AUC(0-t): 851 ng·h/mL
[1]; Sprague-Dawley, rat, plasma, iv, 5 mg/kg, 5 mg/kg IV, individual animals Rat 1-3, read-out: CL
  clearance: 79.2 mL/min/kg
[1]; Sprague-Dawley, rat, plasma, iv, 5 mg/kg, 5 mg/kg IV, individual animals Rat 1-3, read-out: Cmax
  Cmax: 1150 ng/mL
[1]; Sprague-Dawley, rat, plasma, iv, 5 mg/kg, 5 mg/kg IV, individual animals Rat 1-3, read-out: MRT
  MRT: 5.54 h
[1]; Sprague-Dawley, rat, plasma, iv, 5 mg/kg, 5 mg/kg IV, individual animals Rat 1-3, read-out: Vss
  Vd: 58.2 L/kg
[1]; Sprague-Dawley, rat, plasma, iv, 5 mg/kg, 5 mg/kg IV, individual animals Rat 1-3, read-out: Vz
  Vd: 79.7 L/kg
[1]; Sprague-Dawley, rat, plasma, iv, 5 mg/kg, 5 mg/kg IV, mean, n=3
  AUC(0-inf): 976 ng·h/mL
[1]; Sprague-Dawley, rat, plasma, iv, 5 mg/kg, 5 mg/kg IV, mean, n=3, read-out: AUClast (AUC0-t)
  AUC(0-t): 783 ± 71.3 ng·h/mL
[1]; Sprague-Dawley, rat, plasma, iv, 5 mg/kg, 5 mg/kg IV, mean, n=3, read-out: CL (clearance)
  clearance: 85.6 ± 5.8 mL/min/kg
[1]; Sprague-Dawley, rat, plasma, iv, 5 mg/kg, 5 mg/kg IV, mean, n=3, read-out: Cmax
  Cmax: 1180 ng/mL
[1]; Sprague-Dawley, rat, plasma, iv, 5 mg/kg, 5 mg/kg IV, mean, n=3, read-out: MRT
  MRT: 5.49 h
[1]; Sprague-Dawley, rat, plasma, iv, 5 mg/kg, 5 mg/kg IV, mean, n=3, read-out: Vss
  Vd: 65.5 L/kg
[1]; Sprague-Dawley, rat, plasma, iv, 5 mg/kg, 5 mg/kg IV, mean, n=3, read-out: Vz
  Vd: 91.2 L/kg
[1]; in words
  generation of 17-AG by Gamitrinib metabolism in rats: did not generate detectable levels
Tumor cells
  IC50: 1 to 4 µM
Melanoma cell lines
  IC50: 0.36 to 2.7 µM

From US20230277569A1, “Compositions and Methods for Treating, Ameliorating and/or Preventing Cancer and Kits for the Same” (priority 2022, published 2023)
